Test results taken from patent US20260297081A1, “COMPOUNDS AND METHODS OF TREATING CANCERS” (Cullgen Inc., priority 2023, published 2026).

Tests used:
Type in all cases: cell-based
[1] = system: MCF7 cells; assay: Anti-proliferation (viability) of MCF7 cells (Table 7, FIG. 2B); details: Homo sapiens, MCF7, MCF7 cells, 3-6 days, 10-point serial dilution; read-out: GI IC50 in MCF-7
[2] = biological target: T1, CDK4 (Homo sapiens, UniProt P11802+Q16531); assay: CDK4 percentage degradation in Calu-1 cells (Table 6); parameters: Cells that express cyclin D1-3 and CDK4/6 proteins were treated with heterobifunctional compounds; endogenous in cells; host or cells: Calu-1; details: 16 hours; for inhibition at 0.04 µM: 40 nM; for inhibition at 0.2 µM: 200 nM
Method in brief: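 Calu-1 cells exposed to heterobifunctional compounds at 40 nM or 200 nM for 16 h. Cyclin D1 and CDK4 levels measured by Western blot of RIPA lysates (BCA-normalised loading), bands quantified by densitometry and expressed as percentage degradation.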
Target sequence in this assay (P11802 2-303 limits assumed): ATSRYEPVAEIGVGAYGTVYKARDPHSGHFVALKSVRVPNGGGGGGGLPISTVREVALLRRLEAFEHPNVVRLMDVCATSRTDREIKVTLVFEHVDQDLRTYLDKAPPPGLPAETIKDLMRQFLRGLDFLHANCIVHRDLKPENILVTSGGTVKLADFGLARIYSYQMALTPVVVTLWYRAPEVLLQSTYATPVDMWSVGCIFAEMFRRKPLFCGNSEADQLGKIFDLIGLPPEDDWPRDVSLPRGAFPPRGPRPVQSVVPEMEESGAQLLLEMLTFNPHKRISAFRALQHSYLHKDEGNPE
Target sequence in this assay (P24385 whole entry partner): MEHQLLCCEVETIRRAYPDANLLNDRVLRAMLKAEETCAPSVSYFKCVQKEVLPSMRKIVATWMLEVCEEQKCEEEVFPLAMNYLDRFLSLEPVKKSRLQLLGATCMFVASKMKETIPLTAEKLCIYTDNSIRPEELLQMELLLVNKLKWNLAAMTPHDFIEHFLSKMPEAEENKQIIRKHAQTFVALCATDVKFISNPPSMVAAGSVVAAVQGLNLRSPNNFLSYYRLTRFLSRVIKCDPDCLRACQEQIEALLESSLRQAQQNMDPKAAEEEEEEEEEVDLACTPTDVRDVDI
Target sequence in this assay (Q16531 2-1140 limits assumed): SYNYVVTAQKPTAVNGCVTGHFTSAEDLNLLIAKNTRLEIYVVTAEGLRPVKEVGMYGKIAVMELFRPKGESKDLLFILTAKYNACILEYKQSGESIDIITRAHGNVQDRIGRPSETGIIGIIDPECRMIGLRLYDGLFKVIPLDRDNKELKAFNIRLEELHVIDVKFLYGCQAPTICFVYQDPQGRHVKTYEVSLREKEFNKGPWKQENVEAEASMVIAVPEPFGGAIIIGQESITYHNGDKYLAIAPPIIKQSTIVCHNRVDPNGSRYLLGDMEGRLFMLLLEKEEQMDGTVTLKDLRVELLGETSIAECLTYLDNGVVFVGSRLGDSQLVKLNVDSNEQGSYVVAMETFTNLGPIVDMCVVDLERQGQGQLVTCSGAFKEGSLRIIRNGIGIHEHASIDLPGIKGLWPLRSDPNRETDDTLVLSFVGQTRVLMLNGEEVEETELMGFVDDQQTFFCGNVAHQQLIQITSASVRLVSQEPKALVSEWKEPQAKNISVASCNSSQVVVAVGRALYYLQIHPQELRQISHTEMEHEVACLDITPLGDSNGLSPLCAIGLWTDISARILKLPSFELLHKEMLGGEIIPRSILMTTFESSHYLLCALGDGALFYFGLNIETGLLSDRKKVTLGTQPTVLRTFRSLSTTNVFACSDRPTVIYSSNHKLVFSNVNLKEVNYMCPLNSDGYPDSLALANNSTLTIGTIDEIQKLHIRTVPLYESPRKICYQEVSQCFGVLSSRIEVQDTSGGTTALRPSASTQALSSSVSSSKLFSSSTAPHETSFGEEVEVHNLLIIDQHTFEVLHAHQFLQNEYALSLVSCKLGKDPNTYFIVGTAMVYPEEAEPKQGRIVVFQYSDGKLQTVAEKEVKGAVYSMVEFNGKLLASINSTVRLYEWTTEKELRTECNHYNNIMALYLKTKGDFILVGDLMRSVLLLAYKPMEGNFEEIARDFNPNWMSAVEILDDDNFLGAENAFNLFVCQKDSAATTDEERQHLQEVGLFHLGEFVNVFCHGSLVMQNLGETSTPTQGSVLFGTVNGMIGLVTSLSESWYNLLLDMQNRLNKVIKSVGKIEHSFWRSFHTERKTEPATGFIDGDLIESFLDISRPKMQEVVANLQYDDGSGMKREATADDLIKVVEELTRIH

[3] = biological target: T1, CDK4; assay: HiBiT detection of HiBiT-tagged CDK4 protein level in MCF7 cells, 16 hours (Table 8); parameters: expressed in transfected cells; host or cells: MCF7; details: MCF7 cells stably expressing HiBiT tagged target proteins
Procedure: HiBiT detection system quantitatively measures total amounts of HiBiT-tagged proteins using a luminescent based method. MCF7 cells stably expressing HiBiT tagged target proteins were treated with heterobifunctional compounds at indicated concentrations for 16 hours, then lysed with Nano-Glo HiBiT Lytic detection reagents.
Target sequence in this assay (P11802 whole entry): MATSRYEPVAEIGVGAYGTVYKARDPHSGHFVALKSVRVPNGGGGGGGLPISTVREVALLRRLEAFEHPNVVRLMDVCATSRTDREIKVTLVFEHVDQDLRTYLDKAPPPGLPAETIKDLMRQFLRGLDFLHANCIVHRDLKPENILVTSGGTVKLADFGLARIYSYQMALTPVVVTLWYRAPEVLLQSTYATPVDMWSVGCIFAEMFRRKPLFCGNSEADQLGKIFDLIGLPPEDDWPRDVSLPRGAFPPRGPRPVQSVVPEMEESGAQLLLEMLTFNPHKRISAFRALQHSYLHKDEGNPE
Target sequence in this assay (P24385 whole entry partner): as the sequence (P24385 whole entry partner) above
Target sequence in this assay (Q16531 2-1140 limits assumed): as the sequence (Q16531 2-1140 limits assumed) above

Row | Compound | IC50 [1] [nM] | inhibition at 0.04 µM [2] [%] | inhibition at 0.2 µM [2] [%] | activity at 0.01 µM ([3]; 10 nM, read-out: % CDK4 Relative Level (10 nM)) [%] | activity at 0.1 µM ([3]; 100 nM, read-out: % CDK4 Relative Level (100 nM)) [%]
1 | CC(=O)c1c(C)c2cnc(Nc3ccc(N4CCN(CCC(=O)N5CC6(CC(Nc7nc(NC(C)C)ccc7C(=O)Nc7cn(C)c(C8CC8)n7)C6)C5)CC4)cn3)nc2n(C2CCCC2)c1=O [CPD-323, 2-((2-(3-(4-(6-((6-acetyl-8-cyclopentyl-5-methyl-7-oxo-7,8-dihydropyrido[2,3-d]pyrimidin-2-yl)amino)pyridin-3-yl)piperazin-1-yl)propanoyl)-2-azaspiro[3.3]heptan-6-yl)amino)-N-(2-cyclopropyl-1-methyl-1H-imidazol-4-yl)-6-(isopropylamino)nicotinamide] | < 50 | < 30 | < 30 | – | –
2 | CNc1ccc(C(=O)Nc2ccc(N(C)C)nn2)c(NC2CC3(C2)CN(C(=O)C2CC24CCN(c2ccc(Nc5ncc6c(C)c(C(C)=O)c(=O)n(C7CCCC7)c6n5)nc2)CC4)C3)n1 (centres unmarked) [CPD-324, 2-((2-(6-(6-((6-acetyl-8-cyclopentyl-5-methyl-7-oxo-7,8-dihydropyrido[2,3-d]pyrimidin-2-yl)amino)pyridin-3-yl)-6-azaspiro[2.5]octane-1-carbonyl)-2-azaspiro[3.3]heptan-6-yl)amino)-N-(6-(dimethylamino)pyridazin-3-yl)-6-(methylamino)nicotinamide] | < 50 | < 30 | < 30 | – | –
3 | CC(=O)c1c(C)c2cnc(Nc3ccc(N4CCN(C(C)C(=O)NC5CC(Nc6nc(NC(C)C)ccc6C(=O)Nc6ccc(N(C)C)nn6)C5)CC4)cn3)nc2n(C2CCCC2)c1=O (centres unmarked) [CPD-326, 2-((3-(2-(4-(6-((6-acetyl-8-cyclopentyl-5-methyl-7-oxo-7,8-dihydropyrido[2,3-d]pyrimidin-2-yl)amino)pyridin-3-yl)piperazin-1-yl)propanamido)cyclobutyl)amino)-N-(6-(dimethylamino)pyridazin-3-yl)-6-(isopropylamino)nicotinamide] | 50 to 100 | < 30 | < 30 | – | –
4 | CNc1ccc(C(=O)Nc2ccc(N(C)C)nn2)c(NC2CCN(C(=O)C3CC34CCN(c3ccc(Nc5ncc6c(C)c(C(C)=O)c(=O)n(C7CCCC7)c6n5)nc3)CC4)CC2)n1 (centres unmarked) [CPD-328, 2-((1-(6-(6-((6-acetyl-8-cyclopentyl-5-methyl-7-oxo-7,8-dihydropyrido[2,3-d]pyrimidin-2-yl)amino)pyridin-3-yl)-6-azaspiro[2.5]octane-1-carbonyl)piperidin-4-yl)amino)-N-(6-(dimethylamino)pyridazin-3-yl)-6-(methylamino)nicotinamide] | < 50 | < 30 | < 30 | – | –
5 | CNc1ccc(C(=O)Nc2ccc(N(C)C)nn2)c(NC2CC(C(=O)N3CCC(N4CCN(c5ccc(Nc6ncc7c(C)c(C(C)=O)c(=O)n(C8CCCC8)c7n6)nc5)CC4)C3)C2)n1 (centres unmarked) [CPD-333, 2-((3-(3-(4-(6-((6-acetyl-8-cyclopentyl-5-methyl-7-oxo-7,8-dihydropyrido[2,3-d]pyrimidin-2-yl)amino)pyridin-3-yl)piperazin-1-yl)pyrrolidine-1-carbonyl)cyclobutyl)amino)-N-(6-(dimethylamino)pyridazin-3-yl)-6-(methylamino)nicotinamide] | < 50 | < 30 | < 30 | – | –
6 | [2H]C([2H])([2H])Nc1ccc(C(=O)Nc2ccc(N(C)C)nn2)c(NC2CC3(C2)CN(C(=O)CC(C)N2CCN(c4ccc(Nc5ncc6c(C)c(C(C)=O)c(=O)n(C7CCCC7)c6n5)nc4)CC2)C3)n1 (centres unmarked) [CPD-341, 2-((2-(3-(4-(6-((6-acetyl-8-cyclopentyl-5-methyl-7-oxo-7,8-dihydropyrido[2,3-d]pyrimidin-2-yl)amino)pyridin-3-yl)piperazin-1-yl)butanoyl)-2-azaspiro[3.3]heptan-6-yl)amino)-N-(6-(dimethylamino)pyridazin-3-yl)-6-((methyl-d3)amino)nicotinamide] | < 50 | < 30 | < 30 | – | –
7 | [2H]C([2H])([2H])Nc1ccc(C(=O)Nc2ccc(N(C)C)nn2)c(NC2CC3(C2)CN(C(=O)CC(N2CCN(c4ccc(Nc5ncc6c(C)c(C(C)=O)c(=O)n(C7CCCC7)c6n5)nc4)CC2)C(F)(F)F)C3)n1 (centres unmarked) [CPD-342, 2-((2-(3-(4-(6-((6-acetyl-8-cyclopentyl-5-methyl-7-oxo-7,8-dihydropyrido[2,3-d]pyrimidin-2-yl)amino)pyridin-3-yl)piperazin-1-yl)-4,4,4-trifluorobutanoyl)-2-azaspiro[3.3]heptan-6-yl)amino)-N-(6-(dimethylamino)pyridazin-3-yl)-6-((methyl-d3)amino)nicotinamide] | < 50 | < 30 | < 30 | – | –
8 | CC(=O)c1c(C)c2cnc(Nc3ccc(CN4CCN(CC(=O)N5CCC(Nc6nc(NC(C)C)ccc6C(=O)Nc6ccc(N(C)C)nn6)CC5)CC4)cn3)nc2n(C2CCCC2)c1=O [CPD-358, 2-((1-(2-(4-((6-((6-acetyl-8-cyclopentyl-5-methyl-7-oxo-7,8-dihydropyrido[2,3-d]pyrimidin-2-yl)amino)pyridin-3-yl)methyl)piperazin-1-yl)acetyl)piperidin-4-yl)amino)-N-(6-(dimethylamino)pyridazin-3-yl)-6-(isopropylamino)nicotinamide] | 50 to 100 | < 30 | < 30 | – | –
9 | CC(=O)c1c(C)c2cnc(Nc3ccc(N4CCN(C(C)CC(=O)N5CCC(Nc6nc(NC(C)C)ccc6C(=O)Nc6ccc(N(C)C)nn6)CC5)CC4)cn3)nc2n(C2CCCC2)c1=O (centres unmarked) [CPD-359, 2-((1-(3-(4-(6-((6-acetyl-8-cyclopentyl-5-methyl-7-oxo-7,8-dihydropyrido[2,3-d]pyrimidin-2-yl)amino)pyridin-3-yl)piperazin-1-yl)butanoyl)piperidin-4-yl)amino)-N-(6-(dimethylamino)pyridazin-3-yl)-6-(isopropylamino)nicotinamide] | < 50 | < 30 | < 30 | – | –
10 | CC(=O)c1c(C)c2cnc(Nc3ccc(N4CCN(C(CC(=O)N5CC6(CC(Nc7nc(NC(C)C)ccc7C(=O)Nc7ccc(N(C)C)nn7)C6)C5)C(F)(F)F)CC4)cn3)nc2n(C2CCCC2)c1=O (centres unmarked) [CPD-367, 2-((2-(3-(4-(6-((6-acetyl-8-cyclopentyl-5-methyl-7-oxo-7,8-dihydropyrido[2,3-d]pyrimidin-2-yl)amino)pyridin-3-yl)piperazin-1-yl)-4,4,4-trifluorobutanoyl)-2-azaspiro[3.3]heptan-6-yl)amino)-N-(6-(dimethylamino)pyridazin-3-yl)-6-(isopropylamino)nicotinamide] | < 50 | < 30 | < 30 | – | –
11 | CC(=O)c1c(C)c2cnc(Nc3ccc(N4CCN(C5CCN(C(=O)[C@H]6CC[C@H](Nc7nc(NC(C)C)ccc7C(=O)Nc7ccc(N(C)C)nn7)CC6)C5)CC4)cn3)nc2n(C2CCCC2)c1=O (some centres unmarked) [CPD-399, 2-((−4-(3-(4-(6-((6-acetyl-8-cyclopentyl-5-methyl-7-oxo-7,8-dihydropyrido[2,3-d]pyrimidin-2-yl)amino)pyridin-3-yl)piperazin-1-yl)pyrrolidine-1-carbonyl)cyclohexyl)amino)-N-(6-(dimethylamino)pyridazin-3-yl)-6-(isopropylamino)nicotinamide] | < 50 | < 30 | < 30 | – | –
12 | CC(=O)c1c(C)c2cnc(Nc3ccc(N4CCN(C5CCN(C(=O)C6CC(Nc7nc(NC(C)C)ccc7C(=O)Nc7ccc(N(C)C)nn7)C6)C5)CC4)cn3)nc2n(C2CCCC2)c1=O (centres unmarked) [CPD-402, 2-((3-(3-(4-(6-((6-acetyl-8-cyclopentyl-5-methyl-7-oxo-7,8-dihydropyrido[2,3-d]pyrimidin-2-yl)amino)pyridin-3-yl)piperazin-1-yl)pyrrolidine-1-carbonyl)cyclobutyl)amino)-N-(6-(dimethylamino)pyridazin-3-yl)-6-(isopropylamino)nicotinamide] | 50 to 100 | < 30 | < 30 | – | –
13 | CC(=O)c1c(C)c2cnc(Nc3ccc(N4CCC5(CC4)CC5C(=O)N4CC5(CC(Nc6nc(NC(C)C)ccc6C(=O)Nc6ccc(N(C)C)nn6)C5)C4)cn3)nc2n(C2CCCC2)c1=O (centres unmarked) [CPD-411, 2-((2-(6-(6-((6-acetyl-8-cyclopentyl-5-methyl-7-oxo-7,8-dihydropyrido[2,3-d]pyrimidin-2-yl)amino)pyridin-3-yl)-6-azaspiro[2.5]octane-1-carbonyl)-2-azaspiro[3.3]heptan-6-yl)amino)-N-(6-(dimethylamino)pyridazin-3-yl)-6-(isopropylamino)nicotinamide] | < 50 | < 30 | < 30 | – | –
14 | CC(C)Nc1ccc(C(=O)Nc2ccc(N(C)C)nn2)c(NC2CC3(CC(NC(=O)CN4CCN(Cc5ccc(Nc6ncc7cc(C(=O)N(C)C)n(C8CCCC8)c7n6)nc5)CC4)C3)C2)n1 (centres unmarked) [CPD-562, 7-cyclopentyl-2-((5-((4-(2-((6-((3-((6-(dimethylamino)pyridazin-3-yl)carbamoyl)-6-(isopropylamino)pyridin-2-yl)amino)spiro[3.3]heptan-2-yl)amino)-2-oxoethyl)piperazin-1-yl)methyl)pyridin-2-yl)amino)-N,N-dimethyl-7H-pyrrolo[2,3-d]pyrimidine-6-carboxamide] | – | – | – | > 85 | > 85
